Laboratory results published in patent publication US20100184806A1, “MODULATION OF NEUROGENESIS BY PPAR AGENTS” (BrainCells, Inc., priority 2006, published 2010).
Read-outs that look alike come from different tables or passages of the source.

How the values were obtained:
mGluR2 = mGluR2 (Homo sapiens, UniProt Q14416); conditions: read-out: IC50 against mGluR2; cited from earlier work
mGluR3 = mGluR3 (Homo sapiens, UniProt Q14832); conditions: read-out: IC50 against mGluR3; cited from earlier work
[1] = system: Group I or Group III receptors; conditions: at sub-mM concentrations; cited from earlier work
[2] = system: human neural stem cells (hNSCs)
Source text: (§1) Mitogen-free test media with a positive control for neuronal differentiation was used along with basal media without growth factors as a negative control.
(§2) A positive control for neuronal differentiation was used along with basal media without growth factors as a negative control.
(§3) Human neural stem cells (hNSCs) were isolated and grown in monolayer culture, plated, treated with varying concentrations of rosiglitazone and/or N-acetylcysteine (test compounds), and stained with TUJ-1 antibody, as described above. Mitogen-free test media with a positive control for neuronal differentiation was used along with basal media without growth factors as a negative control.
(§4) Human neural stem cells (hNSCs) were isolated and grown in monolayer culture, plated, treated with varying concentrations of ciglitazone and/or N-acetylcysteine (test compounds), and stained with TUJ-1 antibody, as described above. Mitogen-free test media with a positive control for neuronal differentiation was used along with basal media without growth factors as a negative control.
(§5) Human neural stem cells (hNSCs) were isolated and grown in monolayer culture, plated, treated with varying concentrations of pioglitazone and/or N-acetylcysteine (test compounds), and stained with TUJ-1 antibody, as described above. Mitogen-free test media with a positive control for neuronal differentiation was used along with basal media without growth factors as a negative control.
(§6) Human neural stem cells (hNSCs) were isolated and grown in monolayer culture, plated, treated with varying concentrations of troglitazone and/or N-acetylcysteine (test compounds), and stained with TUJ-1 antibody, as described above. Mitogen-free test media with a positive control for neuronal differentiation was used along with basal media without growth factors as a negative control.
(§7) The presence of synergy was determined by use of a combination index (CI). […] The CI is a quantitative measure of the nature of drug interactions, comparing the EC50's of two compounds, when each is assayed alone, to the EC50 of each compound when assayed in combination. The combination index (CI) is equal to the following formula:
(§8) where C1 and C2 are the concentrations of a first and a second compound, respectively, resulting in 50% activity in neuronal differentiation when assayed in combination; and IC1 and IC2 are the concentrations of each compound resulting in 50% activity when assayed independently.

[3] = system: KA, AMPA, and NMDA iGlu receptors; conditions: cited from earlier work
mGlu7 and mGlu8 = conditions: at higher concentrations (e.g., above 1 μM); cited from earlier work
human mGlu3 receptors = human mGlu3 receptors (Homo sapiens, UniProt Q14832); conditions: low nanomolar range, e.g. below about 10 nM, or below about 5 nM; read-out: EC50 against human mGlu3 receptors in vitro; cited from earlier work
human mGlu2 receptors = human mGlu2 receptors (Homo sapiens, UniProt Q14416); conditions: low nanomolar range, e.g. below about 10 nM, or below about 5 nM; read-out: EC50 against human mGlu2 receptors in vitro; cited from earlier work
[4] = system: human neural stem cells (hNSCs); experiment: Neuronal differentiation of human neural stem cells (TUJ-1 staining); conditions: read-out: EC50, neuronal differentiation, extrapolated, agent alone, extrapolated based on the data
Source text: as §1, §2, §3, §4, §5, §6, §7, §8

Sequence of human mGlu3 receptors (Q14832 23-879): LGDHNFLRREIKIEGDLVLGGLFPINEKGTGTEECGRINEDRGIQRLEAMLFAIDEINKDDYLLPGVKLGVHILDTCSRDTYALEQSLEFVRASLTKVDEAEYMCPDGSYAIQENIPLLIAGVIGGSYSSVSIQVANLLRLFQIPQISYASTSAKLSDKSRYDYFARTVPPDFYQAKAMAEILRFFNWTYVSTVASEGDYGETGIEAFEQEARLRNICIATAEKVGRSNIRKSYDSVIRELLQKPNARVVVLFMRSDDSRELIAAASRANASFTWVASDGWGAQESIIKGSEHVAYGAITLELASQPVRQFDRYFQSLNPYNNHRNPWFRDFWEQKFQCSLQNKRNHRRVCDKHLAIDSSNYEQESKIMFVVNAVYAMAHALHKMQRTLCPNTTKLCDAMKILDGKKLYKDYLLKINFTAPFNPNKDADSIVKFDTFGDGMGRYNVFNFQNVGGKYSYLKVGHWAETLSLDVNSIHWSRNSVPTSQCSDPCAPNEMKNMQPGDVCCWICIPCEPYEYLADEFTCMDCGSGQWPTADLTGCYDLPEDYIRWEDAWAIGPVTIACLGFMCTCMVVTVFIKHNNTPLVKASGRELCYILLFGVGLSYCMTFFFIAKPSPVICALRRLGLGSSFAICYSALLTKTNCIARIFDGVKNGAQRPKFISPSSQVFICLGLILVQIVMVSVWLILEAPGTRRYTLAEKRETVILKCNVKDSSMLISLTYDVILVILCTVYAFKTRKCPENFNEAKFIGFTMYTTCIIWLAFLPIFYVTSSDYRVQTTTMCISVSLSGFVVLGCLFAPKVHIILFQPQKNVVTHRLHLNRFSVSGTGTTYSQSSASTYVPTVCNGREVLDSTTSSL
Sequence of mGluR3 (Q14832 23-879): as above
Sequence of human mGlu2 receptors (Q14416 19-872): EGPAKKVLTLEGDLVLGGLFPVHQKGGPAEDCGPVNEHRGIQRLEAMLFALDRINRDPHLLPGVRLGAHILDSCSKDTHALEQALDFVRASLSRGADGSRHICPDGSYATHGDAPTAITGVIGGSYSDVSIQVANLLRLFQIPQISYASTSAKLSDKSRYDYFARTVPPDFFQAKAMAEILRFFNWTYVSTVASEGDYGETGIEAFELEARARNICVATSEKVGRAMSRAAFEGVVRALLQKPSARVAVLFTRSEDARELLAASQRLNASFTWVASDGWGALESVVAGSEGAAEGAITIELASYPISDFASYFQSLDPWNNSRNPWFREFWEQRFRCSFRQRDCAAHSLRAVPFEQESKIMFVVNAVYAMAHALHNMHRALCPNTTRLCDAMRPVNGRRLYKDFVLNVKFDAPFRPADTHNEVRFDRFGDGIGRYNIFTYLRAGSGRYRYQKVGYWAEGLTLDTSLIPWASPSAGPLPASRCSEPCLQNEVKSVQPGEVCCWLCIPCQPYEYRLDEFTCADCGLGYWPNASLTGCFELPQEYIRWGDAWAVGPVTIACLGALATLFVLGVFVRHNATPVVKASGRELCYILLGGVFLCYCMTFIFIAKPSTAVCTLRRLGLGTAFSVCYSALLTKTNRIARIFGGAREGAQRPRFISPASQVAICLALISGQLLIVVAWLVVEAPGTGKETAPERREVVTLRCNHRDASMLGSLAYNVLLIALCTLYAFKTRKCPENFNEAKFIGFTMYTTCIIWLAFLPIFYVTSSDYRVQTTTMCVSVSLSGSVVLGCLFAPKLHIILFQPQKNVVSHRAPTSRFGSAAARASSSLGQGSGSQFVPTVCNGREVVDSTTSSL
Sequence of mGluR2 (Q14416 19-872): as above

NC1(C(=O)O)CCc2cc(P(=O)(O)O)ccc21 (racemic) [APICA, (RS)-1-amino-5-phosphonoindan-1-carboxylic acid]
IC50 (mGluR2): ~30 µM | IC50 (mGluR3): ~30 µM | activity against Group I or Group III receptors [1]: no appreciable activity

CCc1ccc(CCOc2ccc(CC3SC(=O)NC3=O)cc2)nc1 (racemic) [pioglitazone, (RS)-5-(4-[2-(5-ethylpyridin-2-yl)ethoxy]benzyl)-thiazolidine-2,4-dione]
EC50 [2]: 0.348 µM

CN(CCOc1ccc(CC2SC(=O)NC2=O)cc1)c1ccccn1 (racemic) [rosiglitazone, (RS)-5-[4-(2-[methyl(pyridin-2-yl)amino]ethoxy)-benzyl]thiazolidine-2,4-dione]
EC50 [2]: 1.8 µM

N[C@](CC1c2ccccc2Oc2ccccc21)(C(=O)O)[C@H]1C[C@@H]1C(=O)O [LY341495, (2S)-2-amino-2-(1S,2S-2-carboxycycloprop-1-yl)-3-(xanth-9-yl) propanoic acid]
activity against KA, AMPA, and NMDA iGlu receptors [3]: substantially inactive | activity against mGlu7 and mGlu8 (mGlu7 and mGlu8): antagonist activity

N[C@@]1(C(=O)O)CO[C@H]2[C@H](C(=O)O)[C@H]21 [LY379268, (−)-2-oxa-4-aminobicyclohexane-4,6-dicarboxylic acid]
EC50 (human mGlu3 receptors): < 0.01 µM | EC50 (human mGlu2 receptors): < 0.01 µM

CC(=O)N[C@@H](CS)C(=O)O [NAC, N-acetyl-L-cysteine]
EC50 [2]: 5.55 µM

O=C(Nc1ccncc1)c1cc([N+](=O)[O-])ccc1Cl [T0070907]
EC50 [4]: 5.4 µM

CC1(COc2ccc(CC3SC(=O)NC3=O)cc2)CCCCC1 (stereo not shown) [ciglitazone, 5-{4-[(1-methylcyclohexyl)methoxy]benzyl}-1,3-thiazolidine-2,4-dione]
EC50 [2]: 0.1 µM

CC(C)(Oc1ccc(C2CC2(Cl)Cl)cc1)C(=O)O (stereo not shown) [ciprofibrate]
EC50 [2]: 2.1 µM

CCOC(=O)C(C)(C)Oc1ccc(Cl)cc1 [clofibrate]
EC50 [2]: 2.6 µM

Nc1c2c(nc3ccccc13)CCCC2 [tacrine]
EC50 [2]: 12.6 µM

Cc1c(C)c2c(c(C)c1O)CCC(C)(COc1ccc(CC3SC(=O)NC3=O)cc1)O2 (stereo not shown) [troglitazone, 5-(4-[(6-hydroxy-2,5,7,8-tetramethylchroman-2-yl)methoxy]benzyl)thiazolidine-2,4-dione]
EC50 [2]: 10 µM
